Results on 20 compounds are retold here after patent US8791123B2, “Substituted pyrazolo[1,5-a]pyrimidine compounds as Trk kinase inhibitors” (Array Biopharma, Inc., priority 2009, dated 2014).

Where two headings read alike, the source gives them in different places.

The target of assay [1] is Human Jak2 kinase domain (Homo sapiens (Human), UniProt O60674). As to the kind of experiment: Jak2 Inhibition Assay (Omnia kinase assay). It counts as biochemical. The settings on record: read-out: Jak2 Enzyme IC50. How it is done: The assays described in Examples C, D, E and F for the determination of JAK1, JAK2, JAK3 and Tyk2 kinase activity, respectively, utilized the Omnia® Kinase fluorescence peptide substrate-based technology (Invitrogen). […] The reactions were therefore read at excitation 360 nm and emission was measured at 485 nm every 50 seconds for 45 minutes using a PerkinElmer EnVision Multilabel Plate Reader.
The final buffer conditions for each of the JAK1, JAK2, JAK3 and Tyk2 assays were as follows: 25 mM HEPES, pH 7.4, 10 mM MgCl2, 0.01% Triton X-100 and 1 mM DTT.
Two-μL aliquots of these were transferred to a fresh plate for a ten-fold intermediate dilution with assay buffer. Five-μL aliquots of the diluted compounds were then transferred to 20-μL of assay mixtures described in Examples C, D, E and F for a final concentration of DMSO of 2%. […] For each plate, percent of control (POC) values were calculated for each well according to the following equation:
[formula] • where • Xmax=Average Uninhibited Controls • Xmin=Average Background IC50's were estimated from the POC's using a standard 4-parameter logistic model:
[formula] • where • A=Minimum Y (Bottom Asymptote) • B=Maximum Y (Top Asymptote) • C=EC50 • D=Slope Factor • X=Compound Concentration (nM) • Y=POC
The IC50 is defined as the concentration of inhibitor at which the POC equals 50 for the fitted curve.
Compounds of Formula I were screened for their ability to inhibit Jak2 using the general enzyme inhibition assay method, in which the assay mixture contained 500 μM ATP, 10 μM Omnia® Y7 peptide (Catalog # IVGN KNZ3071C, Invitrogen Corporation, Carlsbad, Calif.) and 4 nM Jak2 in a total volume of 20 μL. Human Jak2 kinase domain comprising amino acids 808-1132 was purchased from Invitrogen Corporation, Carlsbad, Calif. (catalog # IVGN PV4210).

For assay [2], the target named is TrkA (histidine-tagged recombinant human TrkA, cytoplasmic domain) (Homo sapiens (Human), UniProt P04629). Description: TrkA ELISA Assay. The conditions noted are these: Table 1; ELISA, 500 μM ATP; read-out: TrkA Enzyme IC50. In kind it is biochemical. As for the experimental part: An enzyme-linked immunosorbant assay (ELISA) was used to assess TrkA kinase activity in the presence of inhibitors. Immulon 4HBX 384-well microtiter plates (Thermo part #8755) were coated with a 0.025 mg/mL solution of poly (Glu, Ala, Tyr; 6:3:1; Sigma P3899). […] The reaction mixture was removed from the plate by washing with PBS containing 0.1% (v/v) Tween 20. The phosphorylated reaction product was detected using 0.2 μg/mL of a phosphotyrosine specific monoclonal antibody (clone PY20) conjugated to horseradish peroxidase in conjunction with the TMB Peroxidase Substrate System (KPL). After the addition of 1M phosphoric acid, the chromogenic substrate color intensity was quantitated via absorbance at 450 nm.

[3] abbreviates: Table 1, 500 μM ATP, >1000 nM when >50% inhibition not observed at 1000 nM.

Sequence of TrkA (histidine-tagged recombinant human TrkA, cytoplasmic domain) (P04629 440-796): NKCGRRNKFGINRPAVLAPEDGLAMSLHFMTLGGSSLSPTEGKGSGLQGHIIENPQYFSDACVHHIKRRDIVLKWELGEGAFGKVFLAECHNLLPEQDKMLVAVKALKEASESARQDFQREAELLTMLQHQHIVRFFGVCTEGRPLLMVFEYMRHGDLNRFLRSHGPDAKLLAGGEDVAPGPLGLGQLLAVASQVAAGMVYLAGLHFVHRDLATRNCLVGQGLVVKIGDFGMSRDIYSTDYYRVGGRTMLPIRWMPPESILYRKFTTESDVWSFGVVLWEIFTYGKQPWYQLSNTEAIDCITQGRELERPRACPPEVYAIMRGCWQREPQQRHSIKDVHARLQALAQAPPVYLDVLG
Sequence of Human Jak2 kinase domain (O60674 808-1132): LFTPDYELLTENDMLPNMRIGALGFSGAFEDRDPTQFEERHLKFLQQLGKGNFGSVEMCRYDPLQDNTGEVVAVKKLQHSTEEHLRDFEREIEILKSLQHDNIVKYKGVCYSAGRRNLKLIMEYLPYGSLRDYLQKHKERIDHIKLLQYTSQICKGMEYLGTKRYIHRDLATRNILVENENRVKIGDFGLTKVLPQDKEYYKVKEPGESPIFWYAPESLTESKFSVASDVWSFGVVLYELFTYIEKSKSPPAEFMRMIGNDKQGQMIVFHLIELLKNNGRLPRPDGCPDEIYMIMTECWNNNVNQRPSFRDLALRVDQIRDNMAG

`O=C(NC1CCC1)c1cnn2ccc(N3CCC[C@@H]3c3cncc(F)c3)nc12` [Example 101, (R)-N-cyclobutyl-5-(2-(5-fluoropyridin-3-yl)pyrrolidin-1-yl)pyrazolo[1,5-a]pyrimidine-3-carboxamide]: the half-maximal inhibitory concentration (IC50) in assay [1] (setting [3]) was more than 1000 nM; in assay [2], 11.7 nM.

In the case of `CC1(C)OCC(COc2ccc(F)cc2[C@H]2CCCN2c2ccn3ncc(C(=O)NC4CC4)c3n2)O1` (stereo partly drawn) [Example 204, N-cyclopropyl-5-((2R)-2-(2-((2,2-dimethyl-1,3-dioxolan-4-yl)methoxy)-5-fluorophenyl)pyrrolidin-1-yl)pyrazolo[1,5-a]pyrimidine-3-carboxamide], the 50% inhibitory concentration (IC50) in assay [1] (setting [3]) is more than 1000 nM; in assay [2], 16.6 nM.

Turning to `O=C(NCCO)c1cnn2ccc(N3CCCC3c3cc(F)ccc3F)nc12` (stereo not shown) [Example 165, 5-(2-(2,5-difluorophenyl)pyrrolidin-1-yl)-N-(2-hydroxyethyl)pyrazolo[1,5-a]pyrimidine-3-carboxamide], the IC50 was more than 1000 nM in assay [1] (setting [3]) and 1.1 nM in assay [2].

On to `Cn1cc(F)cc([C@H]2CCCN2c2ccn3ncc(C(=O)NC(C)(C)C)c3n2)c1=O` [Example 226, (R)—N-tert-butyl-5-(2-(5-fluoro-1-methyl-2-oxo-1,2-dihydropyridin-3-yl)pyrrolidin-1-yl)pyrazolo[1,5-a]pyrimidine-3-carboxamide], for which the 50% inhibitory concentration (IC50) in assay [1] (setting [3]) was more than 1000 nM; in assay [2] it was 10.5 nM.

Consider `Cc1ncc(F)cc1[C@H]1CCCN1c1ccn2ncc(C(=O)NC(C)C)c2n1` [Example 184, (R)-5-(2-(5-fluoro-2-methylpyridin-3-yl)pyrrolidin-1-yl)-N-isopropylpyrazolo[1,5-a]pyrimidine-3-carboxamide], for which the results for the IC50 in assay [1] (setting [3]) and in assay [2] were more than 1000 nM and 7.4 nM, respectively.

Turning to `Cn1cnc(CNC(=O)c2cnn3ccc(N4CCC[C@@H]4c4cc(F)ccc4F)nc23)c1` [Example 21, (R)-5-(2-(2,5-difluorophenyl)pyrrolidin-1-yl)-N-((1-methyl-1H-imidazol-4-yl)methyl)pyrazole[1,5-a]pyrimidine-3-carboxamide], the IC50 in assay [1] (setting [3]) is more than 1000 nM; in assay [2], 2.95 nM.

`CC(C)(C)NC(=O)c1cnn2ccc(N3CCC[C@@H]3c3cc(F)c[nH]c3=O)nc12` [Example 202, (R)—N-tert-butyl-5-(2-(5-fluoro-2-oxo-1,2-dihydropyridin-3-yl)pyrrolidin-1-yl)pyrazolo[1,5-a]pyrimidine-3-carboxamide]: the values for the IC50 in assay [1] (setting [3]) and in assay [2] were more than 1000 nM and 19.3 nM, respectively.

`O=C(c1cnn2ccc(N3CCC[C@@H]3c3cc(F)ccc3F)nc12)N1CC[C@H](O)C1` [Example 18, (5-((R)-2-(2,5-difluorophenyl)pyrrolidin-1-yl)pyrazolo[1,5-a]pyrimidin-3-yl)((S)-3-hydroxypyrrolidin-1-yl)methanone]: the values for the half-maximal inhibitory concentration (IC50) in assay [1] (setting [3]) and in assay [2] were more than 1000 nM and 38.3 nM, respectively.

For the compound `COc1ncc(F)cc1[C@H]1CCCN1c1ccn2ncc(C(=O)NC(C)(C)CF)c2n1` [Example 81, (R)-5-(2-(5-fluoro-2-methoxypyridin-3-yl)pyrrolidin-1-yl)-N-(1-fluoro-2-methylpropan-2-yl)pyrazolo[1,5-a]pyrimidine-3-carboxamide], the IC50 in assay [1] came out at 666 nM; in assay [2], 1.15 nM.

For `O=C(N[C@H]1CC[C@H](O)CC1)c1cnn2ccc(N3CCC[C@@H]3c3cc(F)ccc3F)nc12` [Example 7, 5-((R)-2-(2,5-difluorophenyl)pyrrolidin-1-yl)-N-((trans)-4-hydroxycyclohexyl)pyrazolo[1,5-a]pyrimidine-3-carboxamide], the 50% inhibitory concentration (IC50) in assay [1] (setting [3]) worked out at 107 nM; in assay [2], 0.45 nM.

For the compound `O=C(NOCCO)c1cnn2ccc(N3CCC[C@@H]3c3cc(F)cnc3Cl)nc12` [Example 225, (R)-5-(2-(2-chloro-5-fluoropyridin-3-yl)pyrrolidin-1-yl)-N-(2-hydroxyethoxy)pyrazolo[1,5-a]pyrimidine-3-carboxamide], the half-inhibitory concentration (IC50) in assay [1] (setting [3]) was more than 1000 nM; in assay [2] it was 52.4 nM.

Take `COCC(C)NC(=O)c1cnn2ccc(N3CCCC3c3cncc(F)c3)nc12` [Example 118, 5-((R)-2-(5-fluoropyridin-3-yl)pyrrolidin-1-yl)-N-(1-methoxypropan-2-yl)pyrazolo[1,5-a]pyrimidine-3-carboxamide]: the IC50 in assay [1] (setting [3]) was more than 1000 nM; in assay [2], 22.5 nM.

For `Cc1ncc(F)cc1[C@H]1CCCN1c1ccn2ncc(C(=O)N3CC(O)C3)c2n1` [Example 192, (R)-(5-(2-(5-fluoro-2-methylpyridin-3-yl)pyrrolidin-1-yl)pyrazolo[1,5-a]pyrimidin-3-yl)(3-hydroxyazetidin-1-yl)methanone], the values for the IC50 in assay [1] (setting [3]) and in assay [2] were more than 1000 nM and 438 nM, respectively.

For the compound `COc1ncc(F)cc1[C@H]1CCCN1c1ccn2ncc(C(=O)NCC(C)(C)O)c2n1` [Example 158, (R)-5-(2-(5-fluoro-2-methoxypyridin-3-yl)pyrrolidin-1-yl)-N-(2-hydroxy-2-methylpropyl)pyrazolo[1,5-a]pyrimidine-3-carboxamide], the results for the half-inhibitory concentration (IC50) in assay [1] (setting [3]) and in assay [2] were more than 1000 nM and 9.9 nM, respectively.

Consider `O=C(N[C@H]1CC[C@H](O)C1)c1cnn2ccc(N3CCC[C@@H]3c3cc(F)ccc3F)nc12` [Example 169, 5-((R)-2-(2,5-difluorophenyl)pyrrolidin-1-yl)-N-((1S,3S)-3-hydroxycyclopentyl)pyrazolo[1,5-a]pyrimidine-3-carboxamide], for which the 50% inhibitory concentration (IC50) in assay [1] (setting [3]) is 759 nM; in assay [2] it was 0.9 nM.

`COc1ncc(F)cc1[C@H]1CCCN1c1ccn2ncc(C(=O)NC[C@@H](O)CO)c2n1` [Example 150, N-((R)-2,3-dihydroxypropyl)-5-((R)-2-(5-fluoro-2-methoxypyridin-3-yl)pyrrolidin-1-yl)pyrazolo[1,5-a]pyrimidine-3-carboxamide]: the IC50 in assay [1] (setting [3]) was more than 1000 nM; in assay [2], 5.7 nM.

In the case of `COc1ncc(F)cc1[C@H]1CCCN1c1ccn2ncc(C(=O)NC(C)(C)C)c2n1` [Example 80, (R)—N-tert-butyl-5-(2-(5-fluoro-2-methoxypyridin-3-yl)pyrrolidin-1-yl)pyrazolo[1,5-a]pyrimidine-3-carboxamide], the IC50 amounted to 869 nM in assay [1] and 1.8 nM in assay [2].

Take `Cn1ccc(NC(=O)c2cnn3ccc(N4CCC[C@@H]4c4cc(F)ccc4F)nc23)n1` [Example 6, (R)-5-(2-(2,5-difluorophenyl)pyrrolidin-1-yl)-N-(1-methyl-1H-pyrazol-3-yl)pyrazolo[1,5-a]pyrimidine-3-carboxamide]: the IC50 in assay [1] (setting [3]) is more than 1000 nM; in assay [2], 1.55 nM.

For `Cn1cc(CNC(=O)c2cnn3ccc(N4CCC[C@@H]4c4cc(F)ccc4F)nc23)cn1` [Example 22, (R)-5-(2-(2,5-difluorophenyl)pyrrolidin-1-yl)-N-((1-methyl-1H-pyrazol-4-yl)methyl)pyrazolo[1,5-a]pyrimidine-3-carboxamide], the IC50 in assay [1] (setting [3]) was more than 1000 nM; in assay [2], 2.1 nM.

As for `O=C(NC1(CO)CC1)c1cnn2ccc(N3CCC[C@@H]3c3cc(F)ccc3F)nc12` [Example 16, (R)-5-(2-(2,5-difluorophenyl)pyrrolidin-1-yl)-N-(1-(hydroxymethyl)cyclopropyl)pyrazolo[1,5-a]pyrimidine-3-carboxamide], the IC50 in assay [1] (setting [3]) was more than 1000 nM; in assay [2], 0.9 nM.
